# Results as given in US4661596A, “Quinolinyl (or pyridinyl) methoxy substituted naphthalene compounds as antiallergic agents” (American Home Products Corporation, priority 1985, dated 1987).
# Tests used:
# [1] = tested on: LTD4 induced bronchoconstriction; assay: in vivo inhibition of LTD4-induced bronchospasm in guinea pigs; parameters: species or system guinea pig (male Hartley); conditions: 50 mg/kg intraduodenal; 10 minutes before induction of bronchospasm by LTD4; average of 6 experiments
# [2] = tested on: synthesis of 5-HETE by rat glycogen-elicited polymorphonuclear leukocytes; assay: inhibition of 5-HETE synthesis by rat glycogen-elicited polymorphonuclear leukocytes; format: cell-based, rat (female Wistar); conditions: Leukocyte; 50 μM unless otherwise stated; rat PMN, A23187 (10 μM) and [14C] arachidonic acid, 10 minutes preincubation
# Procedure: This is especially true with respect to 5,12-diHETE, which is also denoted as LTB4 [see Ford-Hitchinson, J. Roy. Soc. Med., 74, 831 (1981)]. The assay of this Example measures the ability of the compounds of the invention to inhibit the synthesis of 5-HETE by rat glycogen-elicited polymorphonuclear leukocytes.
# The array is carried out as follows:
# Peritoneal PMN are obtained from female Wistar rats (150-250 g) that received an i.p. injection of 6% glycogen (10 mL). After 24 hours, rats are killed by CO2 asphyxiation and peritoneal cells are harvested by peritoneal lavage using Ca^++ and Mg^++ free Hanks' balanced salt solution (HBSS). The peritoneal exudate is centrifuged at 400 g for 10 minutes. After centrifugation, the lavaged fluid is removed and the cell pellet is resuspended in HBSS containing Ca^++ and Mg^++ and 10 mM L-cysteine at a concentration of 2×10^7 cells/mL. To 1 mL portions of cell suspension, test drugs or vehicle are added and incubated at 37° C. for 10 minutes. Following this preincubation, the calcium ionophore (10 μM), A23187, is added together with 0.5 μCi [^14 C] arachidonic acid and further incubated for 10 minutes. The reaction is stopped by the addition of ice cold water (3 mL) and acidifying to pH 3.5. Lipoxygenase products are then extracted twice into diethyl ether. The pooled ether extracts are evaporated to dryness under nitrogen and the residue is redissolved in a small volume of methanol and spotted on aluminum backed pre-coated thin layer chromatographic plates. The samples are then co-chromatographed with authentic reference 5-HETE in the solvent system-hexane:ether:acetic acid (50:50:3). After chromatography, the areas associated with 5-HETE standard are identified by autoradiography, cut out and quantitated by liquid scintillation.
# Results are expressed as % inhibition of [^14 C]5-HETE synthesis. [formula]
# Testing compounds of the invention in this assay the following results are obtained, where the concentration of the compounds tested is 50 μM unless otherwise stated.
Compound,% Inhibition (Statistical Average) Overflow Volume at 5 min. [1],inhibition at 50 µM [2]
"OC1CCCc2ccc(OCc3ccc4ccccc4n3)cc21 (stereo not shown) [Example 1, 1,2,3,4-Tetrahydro-7-(2-quinolinylmethoxy)-1-naphthalenol]",56.1%,> 50%
"Nc1cccc2ccc(OCc3ccc4ccccc4n3)cc12 [Example 6, 7-(2-quinolinylmethoxy)-1-naphthalenamine]",,> 50%
"C=C1CCCc2ccc(OCc3ccc4ccccc4n3)cc21 [Example 9, 2-[[(5,6,7,8-tetrahydro-8-methylene-2-naphthalenyl)oxy]methyl]quinoline]",,> 50%
"Oc1ccc2ccc(OCc3ccccn3)cc2c1 [Example 5, 7-(2-pyridinylmethoxy)-2-naphthalenol]",,> 50%
"O=S(=O)(Nc1ccc2ccc(OCc3ccc4ccccc4n3)cc2c1)C(F)(F)F [Example 10, N-[7-(2-quinolinylmethoxy)-2-naphthalenyl]trifluoromethane sulfonamide]",99.0%,
"Nc1ccc2ccc(OCc3ccc4ccccc4n3)cc2c1 [Example 7, 7-(2-quinolinylmethoxy)-2-naphthalenamine]",88.7%,> 50%
"Oc1ccc2ccc(OCc3nc4ccccc4s3)cc2c1 [Example 4, 7-(2-benzothiazolylmethoxy)-2-naphthalenol]",,> 50%
"COc1ccc2ccc(OCc3ccc4ccccc4n3)cc2c1 [Example 3, 2-[[(7-methoxy-2-naphthalenyl)oxy]methyl]quinoline]",,> 50%
"Oc1ccc2ccc(OCc3ccc4ccccc4n3)cc2c1 [Example 2, 7-(2-quinolinylmethoxy)-2-naphthalenol]",,> 50%
"CCS(=O)(=O)Nc1ccc2ccc(OCc3ccc4ccccc4n3)cc2c1 [Example 8, N-[7-(2-quinolinylmethoxy)-2-naphthalenyl]ethane sulfonamide]",90.6%,> 50%
